Experimental findings from patent publication US20260258009A1, “3-[(BENZO[D][1,3]DIOXOLANE-4-YL)OXY]PROPYLAMINE HYDROCHLORIDE, OPTICAL ISOMER AND CRYSTAL THEREOF, AND PREPARATION METHOD THEREFOR” (priority 2022, published 2026) are described below.

Broadly, the AUC(0-t) is the area under the concentration-time curve up to a stated or last time point. A higher AUC(0-t) goes with more exposure. By Cmax is commonly meant the maximum level reached in the sampled fluid or tissue. The term Tmax denotes the time at which the peak concentration occurs. In general, bioavailability refers to the share of a dose that reaches the circulation, judged against a reference dose that is usually intravenous. A low value points to poor availability. A word on the solubility: it is the concentration that dissolves in the medium under given conditions. A word on the ED50: it is the midpoint of the dose-response relation. The LD50 is the dose at which mortality reaches 50%.

Structures are written as SMILES. Like-named read-outs stand apart in the source and are kept apart here.

The conditions of data set [1]: both, beagle, dog, in vivo.
Description: Each group had six beagle dogs, half male and half female.
Preparation of solutions: • 1) Intravenous injection administration: 0.9% Normal saline was used as a vehicle. • 2) Oral administration: According to the dose of 10 mg/kg (based on base), a corresponding mass of the drug was weighed according to the actual weight of the animal, and then filled into a capsule to be administered to the animal.
Data set [2] is described as follows: Experiments of influencing factors (crystal form stability, XRPD). It counts as physicochemical. The settings on record: listed as A crystal form, hydrochloride; for Crystal form after High temperature of 60° C. / Crystal form after Illumination of 5000 1x / Crystal form after High humidity of 92.5%: XRPD; for Crystal form after Illumination of 5000 1x: photostability tester 5000 lx; for Crystal form after High humidity of 92.5%: relative humidity 92.5%. How it is done: High temperature experiment: About 1 g of the A, B, and C crystal forms were respectively weighed, placed in a clean watch glass, and placed at 60° C. for 10 days. The samples were taken on day 0, day 5, day 10, and day 30 for XRPD analysis.
High humidity experiment: About 1 g of the A, B, and C crystal form samples were respectively weighed, placed in a clean watch glass, and placed at a relative humidity of 92.5% for 10 days. The samples were taken on day 0, day 5, day 10, and day 30 for XRPD analysis.
Illumination experiment: About 1 g of the A, B, and C crystal form samples were respectively weighed, placed in a clean watch glass, laid flat, and placed in a photostability tester (the illumination was 5000 lx) for 10 days. The samples were taken on day 0, day 5, day 10, and day 30 for XRPD analysis.

Data set [3] in a line: Solubility experiment (HPLC, external standard method). It counts as physicochemical. How it is done:
The concentrated solution was placed in a 20° C. water bath thermostatic oscillator for overnight oscillation (supersaturation) and filtered. The filtrate was taken, 1 mL of which was precisely measured and placed in a 100 mL volumetric flask. A diluent (water) was added, the mixture was diluted to volume and mixed well, 1 mL of which was precisely measured and placed in a 10 mL volumetric flask. A diluent was added, the mixture was diluted to volume and mixed well as a test sample solution.
Control substance solution: A proper amount of 5 samples were respectively taken, precisely measured, dissolved in a proper amount of a diluent by ultrasonication, and diluted to give a solution containing about 0.1 mg of the sample per 1 mL. Two duplicate samples were prepared for each batch.
• (1) Preparation of buffer: About 2.6428 g ammonium sulfate was weighed and dissolved in 1000 mL of water. 2 mL of triethylamine was added, and the pH value was adjusted to 4.0 with dilute sulfuric acid. • (2) Preparation of mobile phase: Methanol-0.02 mol/L ammonium sulfate solution (2 mL triethylamine was added per 1000 mL, and the pH value was adjusted to 4.0 with dilute sulfuric acid) (45:55). 1000 mL was prepared, mixed well, filtered, and used after ultrasonic treatment.
Detection wavelength: 230 nm; flow rate: 1.0 mL/min; column temperature: 35° C.; sample injection volume: 20 μL; chromatographic column: Agilent Eclipse XDB-C18 chromatographic column (4.6×150 mm, 5 μm); mobile phase: methanol-0.02 mol/L ammonium sulfate solution (2 mL triethylamine was added per 1000 mL, and the pH value was adjusted to 4.0 with dilute sulfuric acid) (45:55).
20 μL of each solution was precisely measured, and injected separately into a liquid chromatograph. The chromatograms were recorded, and the solubility of the compounds was determined according to an external standard method.

The next data set can be described thus: Hygroscopicity test. It counts as physicochemical. As to conditions: 25° C.±1° C., relative humidity 80%±2%, 24 h; for Hygroscopicity: hydrochloride. On the procedure: 17.1. A dried glass weighing bottle with a plug (outer diameter: 50 mm; height: 15 mm) was taken and placed in a suitable thermostatic dryer (with saturated ammonium chloride or ammonium sulfate solution placed in the lower part) at 25° C.±1° C. or an artificial climate box (with a set temperature at 25° C.±1° C. and relative humidity at 80%±2%) on the day before the test, and the weight (m1) was precisely measured. 17.2. An appropriate amount of the A crystal form of the compound of formula (I) was taken and spread in the above weighing bottle, with the thickness of the test sample being about 1 mm in general, and the weight (m2) was precisely measured. […] The weighing bottle was opened and placed in the above conditions at constant temperature and humidity for 24 h together with the cap. 17.4. The weighing bottle was capped, and the weight (m3) was precisely measured. [formula]

Data set [4] relates to ICR mice. Briefly: Mouse forced swimming test. It counts as in vivo. The settings on record: intragastric; for Immobility time: mice, 1 h after administration, mean±SD, n=12; for minimum effective dose (MED) / ED50: mouse forced swimming; for ED50: po, read-out: ED50 (median effective dose, FST-ED50). How it is done:
SPF grade ICR mice were taken. The animals were grouped by weight, 12 animals per group, and the animals were allowed to acclimate for at least 3 days before behavioural test.
The behavioural test was started 1 h after intragastric administration. The mice were placed in a transparent glass cylinder with water (water depth: 15 cm, water temperature: 23-25° C.) and video recorded for 6 min (the background was an LED light panel). At the end of the time, the mice were removed from the water and the next batch of mice was subjected to the behavioural test. Water was changed after every 3 batches of tests. After the test, the video of the behavioural test was derived and the cumulative immobility time of the mice 4 min after the 6 min forced swimming period was analyzed using the Forced Swim Scant 2.0 software.
The test results are expressed as mean±SD. Comparisons between each group and the vehicle group were conducted using the t-test. The differences were considered statistically significant when. P<0.05.

A short description of the next data set: in vivo. As to conditions: both sexes, ICR, mouse, in vivo, po. On the procedure:
(§1) The dose administered at the time of the formal test was determined based on the dose of the compound in the preliminary experiment that caused 100% and 0% death in mice. In the formal test, ICR mice were taken and randomly grouped, with 10 mice in each group, half male and half female, which were subjected to intragastric administration at 10 mL/kg.
(§2) From the results of the mouse acute toxicity test, the compound of formula (I) is least toxic. The therapeutic index (TI=LD50/ED50) was calculated based on the results of the mouse acute toxicity and efficacy test.

Data set [5] relates to ICR mice. Briefly: in vivo. As to conditions: mouse acute toxicity LD50 / forced swimming ED50. How it is done:
as §1, §2

For `CNCC[C@@H](Oc1cccc2c1OCO2)c1ccccc1.Cl` [Crystal form A of compound of formula (I)] [(R)—N-methyl-3-phenyl-3-[(benzo[d][1,3]dioxolan-4-yl)oxy]propylamine hydrochloride], in data set [1] (iv, 0.3 mg/kg), the exposure AUC(0-t) is 123.7 ng·h/mL, the “AUC(0-∞)” value came to 124.5 ng·h/mL, the Cmax was determined as 83.6 ng/mL and the Tmax was found to be 0.08 h. Also, in data set [1] (iv, 0.3 mg/kg), the t1/2 is reported as 2.08 h. The compound also had a bioavailability in data set [1] (po) of 28.2%. Moreover, in data set [1] (po, 1 mg/kg), the “AUC(0-t)” value amounted to 116.3 ng·h/mL, the “AUC(0-∞)” value was found to be 117.1 ng·h/mL, the maximum concentration (Cmax) came to 35.3 ng/mL and the Tmax was 0.92 h. The t1/2 in data set [1] (po, 1 mg/kg) amounted to 2.48 h. Also, in data set [2] (5 days), the “Crystal form after High temperature of 60° C.” value (“Crystal form … of 60° C.” for short) is “Crystal form A”, the “Crystal form after Illumination of 5000 1x” value (shortened to “Crystal form … of 5000 1x”) was “Crystal form A” and the “Crystal form after High humidity of 92.5%” value (“Crystal form … of 92.5%” for short) is given as “Crystal form A”. Moreover, in data set [2] (10 days), the “Crystal form … of 60° C.” value is “Crystal form A”, the “Crystal form … of 5000 1x” value is “Crystal form A” and the “Crystal form … of 92.5%” value was “Crystal form A”. In data set [2] (30 days), the “Crystal form … of 60° C.” value was “Crystal form A”, the “Crystal form … of 5000 1x” value is “Crystal form A” and the “Crystal form … of 92.5%” value is on record as “Crystal form A”. Moreover, the “Crystal form stability (experimental conclusion)” value in data set [2] (high temperature, high humidity, illumination, condition stated in the value) was “can keep stable under high temperature, high humidity, and illumination”. In data set [3], the solubility came to 35.55 mg/mL. In the data set “Hygroscopicity test”, this compound gave a Weight gain of 0.01%. Further, in “Hygroscopicity test” (listed as A crystal form of the compound of formula (I)), the Hygroscopicity entry is listed as “no or almost no hygroscopicity”. Besides, the Hygroscopicity entry in “Hygroscopicity test” (listed as A crystal form) is listed as “no or almost no hygroscopicity”.

For `CNCCC(Oc1cccc2c1OCO2)c1ccccc1.Cl` (stereo not drawn) [N-methyl-3-phenyl-3-[(benzo[d][1,3]dioxolan-4-yl)oxy]propylamine hydrochloride], the Immobility time with ICR mice [4] (0.2 mg/kg) was determined as 165.3 ± 37.2 s; in the data set with ICR mice [4] (0.4 mg/kg), 125.6 ± 53.6 s; with ICR mice [4] (0.8 mg/kg), 86.9 ± 53.4 s; in the data set on ICR mice [4] (1.6 mg/kg), 83.2 ± 52.9 s; with ICR mice [4] (15 mg/kg) it was 64.3 ± 73.7 s; with ICR mice [4] (30 mg/kg), 3.7 ± 5.9 s. Further, the “minimum effective dose (MED)” value in the data set with ICR mice [4] turned out to be 0.4 mg/kg. Besides, the 50% effective dose (ED50) in the data set with ICR mice [4] turned out to be 1.81 mg/kg. In addition, the LD50 at 7 days was 112 mg/kg in “in vivo” (mice, single intragastric administration, observed within 7 days, read-out: Mouse acute toxicity LD50 (median lethal dose)) and 102 to 122 mg/kg in “in vivo” (mice, single intragastric administration, read-out: 95% confidence interval of LD50). Besides, the “TI = LD50/ED50 (therapeutic index)” value with ICR mice [5] turned out to be 62.0. Also, in data set [3] (water, 20 °C, water, thermodynamic from solid, Water, 20° C., overnight oscillation, read-out: Solubility), the solubility came to 1500 mg/mL.

As to `CNCC[C@H](Oc1cccc2c1OCO2)c1ccccc1.Cl` [(S)—N-methyl-3-phenyl-3-[(benzo[d][1,3]dioxolan-4-yl)oxy]propylamine hydrochloride], the Immobility time is recorded as 180.4 ± 29.4 s in the data set with ICR mice [4] (0.2 mg/kg); 167.5 ± 45.7 s in the data set with ICR mice [4] (0.4 mg/kg); 147.0 ± 65.4 s in the data set on ICR mice [4] (0.8 mg/kg); 94.1 ± 35.4 s in the data set with ICR mice [4] (1.6 mg/kg); 8.9 ± 8.7 s in the data set with ICR mice [4] (15 mg/kg); 6.2 ± 9.7 s in the data set on ICR mice [4] (30 mg/kg). For the same compound, the “minimum effective dose (MED)” value in the data set on ICR mice [4] worked out at 1.6 mg/kg. Also, the median effective dose (ED50) in the data set on ICR mice [4] is 1.74 mg/kg. In addition, the LD50 at 7 days was 13.1 to 91.3 mg/kg in the data set “in vivo” (95% confidence interval of LD50) and 66.8 mg/kg in “in vivo” (Mouse acute toxicity LD50 (median lethal dose)). For the same compound, the “TI = LD50/ED50 (therapeutic index)” value with ICR mice [5] is given as 38.4.
